Source: ChEMBL document CHEMBL2157932, “Synthesis and pharmacological evaluation of carbamic acid 1-phenyl-3-(4-phenyl-piperazine-1-yl)-propyl ester derivatives as new analgesic agents” (Bioorg Med Chem Lett, 2012)
Active and inactive are the calls of the source. The calls are words filed in the database; no cut-off is given here.

Columns and labels:
[1] = tested on: Mus musculus; experiment: Neurotoxicity in mouse assessed as myoreflexation or sedation at 52.7 mg/kg, ip by rotarod test; type: toxicity, organism-based; parameters: dose 52.7 mg/kg, route intraperitoneal; settings: in vivo
[2] = tested on: Mus musculus; experiment: Neurotoxicity in mouse assessed as myoreflexation or sedation at 139 mg/kg, po by rotarod test; type: toxicity, organism-based; parameters: dose 139 mg/kg, route oral; settings: in vivo
[3] = target: T1, 5-hydroxytryptamine receptor 1A (Rattus norvegicus, UniProt P19327); experiment: Displacement of [3H]-8-OH-DPAT from 5HT1A receptor in rat hippocampus; type: tissue-based
T1 sequence (P19327 whole entry): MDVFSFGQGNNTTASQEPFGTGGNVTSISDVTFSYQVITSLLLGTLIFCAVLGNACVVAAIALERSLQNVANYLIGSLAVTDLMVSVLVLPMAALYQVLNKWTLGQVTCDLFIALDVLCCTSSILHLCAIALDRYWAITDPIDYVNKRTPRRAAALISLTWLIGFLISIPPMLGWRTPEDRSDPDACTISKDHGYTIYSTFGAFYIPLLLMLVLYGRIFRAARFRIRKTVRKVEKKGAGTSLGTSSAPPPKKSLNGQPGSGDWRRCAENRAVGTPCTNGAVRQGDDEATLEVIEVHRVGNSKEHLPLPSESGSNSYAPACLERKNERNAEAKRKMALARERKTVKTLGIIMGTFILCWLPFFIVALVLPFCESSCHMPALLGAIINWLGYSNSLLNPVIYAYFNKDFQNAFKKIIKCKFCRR

[4] = target: 5-hydroxytryptamine receptor 2A (Rattus norvegicus, UniProt P14842); experiment: Displacement of [3H]-ketanserin from 5HT2A receptor in rat cortical membrane; type: cell membranes
Chain of 5-hydroxytryptamine receptor 2A (Rattus norvegicus, UniProt P14842) (P14842 whole entry): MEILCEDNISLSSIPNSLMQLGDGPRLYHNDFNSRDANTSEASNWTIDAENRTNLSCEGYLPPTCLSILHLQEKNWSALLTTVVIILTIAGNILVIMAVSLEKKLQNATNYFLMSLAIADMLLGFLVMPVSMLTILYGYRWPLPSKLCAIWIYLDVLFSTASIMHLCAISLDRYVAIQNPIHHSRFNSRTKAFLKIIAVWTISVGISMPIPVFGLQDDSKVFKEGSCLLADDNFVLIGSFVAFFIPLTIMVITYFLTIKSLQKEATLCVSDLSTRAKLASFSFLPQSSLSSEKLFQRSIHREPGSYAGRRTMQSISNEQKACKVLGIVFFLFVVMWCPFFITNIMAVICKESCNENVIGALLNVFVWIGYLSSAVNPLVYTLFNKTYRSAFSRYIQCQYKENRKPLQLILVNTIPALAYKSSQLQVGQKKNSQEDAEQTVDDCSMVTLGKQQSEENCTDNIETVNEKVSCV

[5] = tested on: Mus musculus; experiment: Analgesic activity in po dosed mouse assessed as inhibition of acetic acid-induced writhing response administered 0.5 to 1 hr before acetic acid challenge; type: functional
[6] = tested on: Mus musculus; experiment: Analgesic activity in ip dosed mouse assessed as inhibition of acetic acid-induced writhing response administered 0.5 to 1 hr before acetic acid challenge; type: functional
[7] = Half life in human liver microsomes by LC/MS/MS; type: ADME, Microsome
[8] = Half life in rat liver microsomes by LC/MS/MS; type: ADME, Microsome
[9] = tested on: Mus musculus; experiment: Antinociceptive activity in po dosed mouse by hot plate test; type: functional
[10] = organism: Mus musculus; experiment: Antinociceptive activity in mouse by hot plate test in presence of naloxone; type: functional, organism-based
[11] = tested on: Rattus norvegicus; experiment: Antiinflammatory activity in po dosed rat persistent inflammatory pain model assessed as inhibition of carrageenan-induced mechanical hyperalgesia; type: functional
[12] = Tmax in rat at 15 mg/kg, po; type: ADME, organism-based; parameters: dose 15 mg/kg, route oral; settings: in vivo
[13] = Cmax in rat at 15 mg/kg, iv; type: ADME, organism-based; parameters: dose 15 mg/kg, route intravenous; settings: in vivo
[14] = Cmax in rat at 15 mg/kg, po; type: ADME, organism-based; parameters: dose 15 mg/kg, route oral; settings: in vivo
[15] = AUCall in rat at 15 mg/kg, iv; type: ADME, organism-based; parameters: dose 15 mg/kg, route intravenous; settings: plasma
[16] = AUCall in rat at 15 mg/kg, po; type: ADME, organism-based; parameters: dose 15 mg/kg, route oral; settings: plasma
[17] = Clearance in rat at 15 mg/kg, iv; type: ADME, organism-based; parameters: dose 15 mg/kg, route intravenous; settings: in vivo
[18] = Volume of distribution at steady state in rat at 15 mg/kg, iv; type: ADME, organism-based; parameters: dose 15 mg/kg, route intravenous; settings: in vivo, read-out: Vdss
[19] = Half life in rat at 15 mg/kg, iv; type: ADME, organism-based; parameters: dose 15 mg/kg, route intravenous; settings: in vivo
[20] = Oral bioavailability in rat at 15 mg/kg; type: ADME, organism-based; settings: in vivo
[21] = target: 5-hydroxytryptamine receptor 2B (Homo sapiens, UniProt P41595); experiment: Binding affinity to 5HT2B receptor
Chain of 5-hydroxytryptamine receptor 2B (P41595 whole entry): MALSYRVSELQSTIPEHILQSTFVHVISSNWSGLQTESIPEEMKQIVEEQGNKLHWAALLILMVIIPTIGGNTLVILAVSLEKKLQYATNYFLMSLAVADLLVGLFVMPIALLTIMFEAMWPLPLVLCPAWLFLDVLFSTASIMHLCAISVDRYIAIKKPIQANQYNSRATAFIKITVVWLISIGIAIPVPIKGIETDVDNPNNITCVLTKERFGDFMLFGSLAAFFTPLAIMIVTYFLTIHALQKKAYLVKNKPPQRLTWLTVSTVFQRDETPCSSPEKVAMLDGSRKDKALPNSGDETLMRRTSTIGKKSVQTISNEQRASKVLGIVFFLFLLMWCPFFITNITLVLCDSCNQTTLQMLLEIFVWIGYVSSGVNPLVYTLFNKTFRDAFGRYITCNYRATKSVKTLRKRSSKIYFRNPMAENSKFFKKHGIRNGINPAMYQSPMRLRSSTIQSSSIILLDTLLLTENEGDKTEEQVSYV

[22] = target: Sigma non-opioid intracellular receptor 1 (Homo sapiens, UniProt Q99720); experiment: Binding affinity to Sigma1
Chain of Sigma non-opioid intracellular receptor 1 (Q99720 whole entry): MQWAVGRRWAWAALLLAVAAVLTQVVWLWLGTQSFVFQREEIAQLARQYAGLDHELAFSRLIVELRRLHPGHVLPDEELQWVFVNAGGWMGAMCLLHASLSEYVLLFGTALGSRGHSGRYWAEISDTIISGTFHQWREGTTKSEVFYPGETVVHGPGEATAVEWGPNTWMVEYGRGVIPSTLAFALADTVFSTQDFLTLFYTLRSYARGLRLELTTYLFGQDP

[23] = target: Sodium-dependent noradrenaline transporter (Homo sapiens) (UniProt P23975); experiment: Binding affinity to norepinephrine transporter at 10 uM
Chain of Sodium-dependent noradrenaline transporter (Homo sapiens) (P23975 whole entry): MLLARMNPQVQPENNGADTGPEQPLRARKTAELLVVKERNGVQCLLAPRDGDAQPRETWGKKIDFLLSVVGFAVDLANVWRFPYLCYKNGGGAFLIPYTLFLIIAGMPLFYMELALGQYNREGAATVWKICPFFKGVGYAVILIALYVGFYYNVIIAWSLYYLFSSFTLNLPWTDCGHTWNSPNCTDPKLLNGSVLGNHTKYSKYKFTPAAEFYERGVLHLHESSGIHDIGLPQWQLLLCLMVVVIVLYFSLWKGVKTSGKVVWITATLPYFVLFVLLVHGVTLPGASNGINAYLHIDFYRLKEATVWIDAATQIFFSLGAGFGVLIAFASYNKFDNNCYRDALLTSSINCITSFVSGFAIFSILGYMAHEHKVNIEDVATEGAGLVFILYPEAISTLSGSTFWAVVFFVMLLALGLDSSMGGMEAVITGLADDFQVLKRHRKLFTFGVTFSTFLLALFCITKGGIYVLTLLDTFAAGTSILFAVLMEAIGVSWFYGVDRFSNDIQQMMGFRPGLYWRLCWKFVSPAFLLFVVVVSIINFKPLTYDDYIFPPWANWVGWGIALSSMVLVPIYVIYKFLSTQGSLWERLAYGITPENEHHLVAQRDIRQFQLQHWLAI

[24] = Binding affinity to opioid receptor at 10 uM
[25] = Binding affinity to prostaglandin synthetase at 10 uM
[26] = target: 5-hydroxytryptamine receptor 2A (Homo sapiens, UniProt P28223); experiment: Antagonist activity at 5HT2A receptor; type: functional
Chain of 5-hydroxytryptamine receptor 2A (Homo sapiens, UniProt P28223) (P28223 whole entry): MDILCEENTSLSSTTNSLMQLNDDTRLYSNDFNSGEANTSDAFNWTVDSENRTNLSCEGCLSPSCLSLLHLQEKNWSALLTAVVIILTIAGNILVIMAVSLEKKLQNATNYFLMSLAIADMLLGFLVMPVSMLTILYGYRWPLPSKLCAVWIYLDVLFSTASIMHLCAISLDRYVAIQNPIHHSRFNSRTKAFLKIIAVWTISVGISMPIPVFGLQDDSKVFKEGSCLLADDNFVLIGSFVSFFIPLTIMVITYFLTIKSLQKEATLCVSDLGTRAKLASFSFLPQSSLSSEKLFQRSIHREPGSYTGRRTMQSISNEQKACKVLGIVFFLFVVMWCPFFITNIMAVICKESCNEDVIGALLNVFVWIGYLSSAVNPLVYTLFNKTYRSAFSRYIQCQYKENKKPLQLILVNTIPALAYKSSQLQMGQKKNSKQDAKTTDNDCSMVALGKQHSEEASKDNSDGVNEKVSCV

[27] = tested on: Mus musculus; experiment: Inhibition of DOI-induced head twitches in ip dosed mouse; type: functional, organism-based
[28] = tested on: Mus musculus; experiment: Inhibition of DOI-induced head twitches in mouse at 0.3 mg/kg, ip; type: functional; settings: route intraperitoneal
[29] = tested on: Mus musculus; experiment: Inhibition of DOI-induced head twitches in mouse at 1 mg/kg, ip; type: functional; settings: route intraperitoneal
[30] = tested on: Mus musculus; experiment: Inhibition of DOI-induced head twitches in mouse at 3 mg/kg, ip; type: functional; settings: route intraperitoneal
[31] = tested on: Mus musculus; experiment: Inhibition of 5-hydroxytryptophan-induced head twitches in mouse at 3 mg/kg, ip; type: functional; settings: route intraperitoneal
[32] = tested on: Mus musculus; experiment: Inhibition of 5-hydroxytryptophan-induced head twitches in mouse at 10 mg/kg, ip; type: functional; settings: route intraperitoneal
[33] = Half life in rat at 15 mg/kg, po; type: ADME, organism-based; parameters: dose 15 mg/kg, route oral; settings: in vivo

In the case of `COc1ccc(N2CCN(CC[C@@H](OC(N)=O)c3ccccc3)CC2)cc1`, the Activity [1] is reported as “Non-toxic”, the Activity [2] is reported as “Non-toxic” and the IC50 [3] is reported as 8.82 µM. The IC50 [4] was 5.77 µM, the ED50 [5] was 2.65 mg/kg and the ED50 [6] was 0.94 mg/kg. It also gave a half-life [7] of 5.32 h, a half-life [8] of 1.52 h and an ED50 [9] of 2.86 mg/kg. The Activity [10] was “Active”, the Activity [11] was “Dose-dependent effect” and the ED50 [11] was 0.68 mg/kg. The Tmax [12] was 1.1 h, the Cmax [13] was 9950 ng/mL and the Cmax [14] was 2200 ng/mL. For the same molecule, the AUC [15] was 17800 ng·h/mL, the AUC [16] was 13200 ng·h/mL and the clearance [17] was 14.1 mL/min/kg. For the same molecule, the Vd [18] was 1.77 L/kg, the half-life [19] was 1.8 h and the bioavailability [20] was 73.8%. The Ki [21] was 0.164 µM, the Ki [22] was 0.392 µM and the inhibition [23] was “inactive”. For the same molecule, the inhibition [24] was “inactive”, the inhibition [25] was “inactive” and the IC50 [26] was 5.8 µM. For the same molecule, the inhibition [27] was “Dose-dependent effect”, the inhibition in vivo at 0.3 mg/kg [28] was 40% and the inhibition in vivo at 1 mg/kg [29] was 61.4%. It also gave an inhibition in vivo at 3 mg/kg [30] of 89.3%, an inhibition in vivo at 3 mg/kg [31] of 46.2% and an inhibition in vivo at 10 mg/kg [32] of 100%. It also gave a half-life [33] of 2.6 h.
